{"source": "patent US20250241925A1", "about": "“METHODS OF P21 SUPPRESSION FOR BONE REGENERATION AND HEALING” (UWM Research Foundation, Inc., priority 2022, published 2025)", "key": {"[1]": {"system": "transverse tibial fracture", "assay": "Microtomography imaging of transverse tibial fracture callus (Example 6)", "type": "in vivo, C57BI/6 wildtype mice", "conditions": "10 μM, 0.1 mL at days 3, 5, 7, 10, 14; 4 weeks post-fracture", "method": "All protocols were approved by IACUC at UWM. C57BI/6 wildtype mice at 8 weeks of age were administered a transverse tibial fracture. The mice were injected with 10 μM of UC2288 solution at a volume of 0.1 mL at days 3, 5, 7, 10, and 14. The mice were sacrificed 4 weeks post-fracture and their tibiae were excised. The bone samples were placed in 10% formalin for two days followed by placement in 70% ethanol until they were ready for microCT imaging. Each sample was placed on a holder and few drops of phosphate buffered saline were placed along with the sample. The sample was scanned using a microCt (Zeiss Xradia Versa X-ray microscope) scanner at a 15 μm thickness per slice. The data was contoured using MIMICS (Materialise NV) followed by data analysis via Python. […] See FIG. 7A-B. The black and white images show where bone was automatically thresholded via ImageJ."}, "[2]": {"system": "Sp7 (Osterix)", "assay": "Gene expression analysis (qPCR, ΔΔCt) in HuMSCs: Sp7", "type": "cell-based, human", "conditions": "7 days", "method": "(§1) Human umbilical cord derived mesenchymal stem cells (HuMSCs) were plated in a 24 well plate at a density of 30,000 cells per well. Samples were divided as controls—no drug, no differentiation media; osteogenic control—no drug, DMEM media supplemented with factors to induce osteogenesis including dexamethasone, L-ascorbic acid, and beta-glycerol phosphate; 2.5, 5, and 10 μM wells consisted of DMEM media supplemented respective concentrations of UC2288. Media was renewed in all wells every other day. After 7 days, all samples were processed to extract total RNA. Next, cDNA was produced and qPCR was performed for gene expression analyses. Three genes of interest were analyzed-RunX2, Sp7 (Osterix), and CDKN1A (p21). RunX2 and Sp7 are genes responsible for osteoblast differentiation and take part in osteogenesis. To analyze the data, the ΔΔCt method was employed against an 18s endogenous control and DMEM media without differentiation factors or drugs as reference controls. The ΔΔCt can be described as:\n(§2) Relative mRNA expression of sample=2^−ΔΔCt of sample,\n(§3) where ΔΔCt of sample=(Ct of sample−Ct of 18s of sample)−(Ct of reference control−Ct of 18s of reference control)."}, "[3]": {"system": "fractured tibiae", "assay": "MicroCT imaging of fracture healing in mice after post-fracture UC2288 injection (Example 4)", "type": "in vivo", "conditions": "five 0.1 mL 10 μM injections at days 3, 5, 7, 10, 14; 21 days post-injury", "method": "Male wildtype mice (n=10) aged between 8-10 weeks were selected for this study. Future experiments will also include aged mice (e.g., ˜18 months of age). […] The mice had their tibiae fractured at the beginning of the study. Five mice were considered controls and received five injections of saline solution at days 3, 5, 7, 10, and 14 post-injury. The other five mice were injected five times with 0.1 mL 10 μM of UC2288 solution at days 3, 5, 7, 10, and 14 post-injury. At 21 days post-injury, mice were sacrificed, and their tibiae were excised. These bones were imaged using a microCT system that can differentiate between bone and soft tissue."}, "[4]": {"system": "MSCs", "assay": "Osteogenic differentiation of MSCs, Alizarin Red S staining of calcium deposits", "type": "cell-based, mouse (C57BL/6)", "method": "In order to test whether UC2288 can improve osteogenic capacity of MSCs, the purified MSCs were differentiated into osteoblasts after interaction with UC2288. For osteogenic differentiation experiment, 84,000 cells were added into wells of a 24-well plate (Corning Inc., NY). Each concentration of UC2288, i.e., 2.5 μM, 5 μM, and 10 μM were tested in triplicates along with their controls which had no drugs but simply DMEM media and incubated for a period of 24- and 48-hours. After the designated time periods, the drug solutions were aspirated out of each well. To test for osteogenesis at different concentrations, relevant media were added to cells and renewed every other day for up to 21 days.\nThe osteogenic media consisted of 1 nM of dexamethasone, 50 μg/mL of L-Ascorbic acid, and 10 mM of β-glycerophosphate (Sigma-Aldrich, MO) in 50 mL DMEM.\nAfter 21 days of culture, cells were stained following the appropriate staining protocol. […]\nThis experiment tested the ability of cells that interacted with the UC2288 drug to generate bone-forming osteoblast cells. […] After staining each well by following an osteogenic staining protocol, the area of the stains was analyzed using ImageJ and the data were graphed in GraphPad Prism. […]"}, "[5]": {"system": "RunX2", "assay": "Gene expression analysis (qPCR, ΔΔCt) in HuMSCs: RunX2", "type": "cell-based, human", "conditions": "7 days", "method": "as §1, §2, §3"}, "[6]": {"system": "MSCs", "assay": "Cytotoxicity (MTT assay) of UC2288 in purified MSCs", "type": "cell-based, mouse (C57BL/6)", "method": "All procedures with animals were approved by the IACUC at the University of Wisconsin-Milwaukee. The mice used for this study were C57BL/6 (Charles River, MA). Fifteen 8-week-old male mice were euthanized by CO2 inhalation. After checking for a heartbeat, a cervical dislocation was performed followed by checking for any signs of breathing again for precautionary measures. After confirming that there were no signs of breathing, the tibia and the femur were extracted and placed in phosphate buffered saline (PBS) (Corning Inc., NY). A bone marrow flush with a 23-gauge, 0.5-inch needle (Becton Dickinson, NJ) was performed in a biosafety hood and the pelleted bone marrow cell suspension was plated in a 60×15 mm Primaria cell culture dish (Corning Inc., NY) in MesenCult Basal Medium (Mouse) that contained 50 mL MesenCult 10× Supplement (Mouse) and 0.5 mL MesenPure 1000× (STEMCELL Technologies, Vancouver, Canada). The plates were incubated at 37° C. in a 5% CO2 humidified atmosphere. After 24 hours, half the medium volume was removed, and fresh medium was added. The media in the cultures were renewed every other day. As the cells reached confluency, they were detached by treatment with 0.5% Trypsin-EDTA (Thermo Fisher Scientific, MA) and replated into a 100×20 mm Primaria cell culture dish (Corning Inc.) and eventually into a T-25-cm^2 Primaria flask (Corning Inc, NY). […]"}, "[7]": {"system": "CDKN1A (p21)", "assay": "Gene expression analysis (qPCR, ΔΔCt) in HuMSCs: p21", "type": "cell-based, human", "conditions": "7 days", "method": "as §1, §2, §3"}}}
{"molecule": "O=C(Nc1ccc(Cl)c(C(F)(F)F)c1)N[C@H]1CC[C@H](Oc2ccc(C(F)(F)F)cn2)CC1", "note": "[UC2288, 1-(4-chloro-3-(trifluoromethyl)phenyl)-3-((1r,4r)-4-((5-(trifluoromethyl)pyridin-2-yl)oxy)cyclohexyl)urea]", "values": [{"measurement": "callus Surface Area (microCT)", "setting": "[1]", "value": 0.1147, "unit": "mm^2"}, {"measurement": "callus Surface Area Pixels (microCT)", "setting": "[1]", "value": 7611878.877, "unit": "Pixels"}, {"measurement": "callus Volume (microCT)", "setting": "[1]", "value": 0.4206, "unit": "mm^3"}, {"measurement": "callus Volume Pixels (microCT)", "setting": "[1]", "value": 27919486, "unit": "Pixels"}, {"measurement": "Sp7 expression compared to the osteogenic positive control", "setting": "[2]; 5 μM", "value": "increased osteogenic potential"}, {"measurement": "Sp7 expression compared to the osteogenic positive control", "setting": "[2]; 10 μM", "value": "increased osteogenic potential"}, {"measurement": "Sp7 expression compared to the control", "setting": "[2]; all concentrations (2.5, 5, 10 μM)", "value": "increased osteogenic gene expression"}, {"measurement": "bone formation/healing versus saline control mice (microCT)", "setting": "[3]", "value": "more bone formation/healing"}, {"measurement": "area of osteogenic stained cells, comparison of 2.5, 5 and 10 μM", "setting": "[4]; 5 μM UC2288 at 24 hr", "value": "most osteogenic stained cells"}, {"measurement": "staining for calcium deposits in osteoblasts from MSCs versus DMEM control", "setting": "[4]; 10 μM UC2288 for 24 hr, 21 days osteogenic culture", "value": "Greater staining"}, {"measurement": "effect on osteogenic markers compared to 2.5 and 10 μM", "setting": "[5]; 5 μM", "value": "most significant effect"}, {"measurement": "RunX2 expression compared to controls", "setting": "[5]; 2.5, 5, 10 μM", "value": "increased osteogenic potential"}, {"measurement": "RunX2 expression compared to the osteogenic control", "setting": "[5]; 2.5, 5, 10 μM", "value": "less than the osteogenic control"}, {"measurement": "proliferation of the MSCs (MTT, absorbance 540 nm) versus positive control DMEM media", "setting": "[6]; 2.5, 5 and 10 μM UC2288, 24 hours", "value": "No significant difference"}, {"measurement": "proliferation of the MSCs (MTT, absorbance 540 nm) versus positive control DMEM media", "setting": "[6]; 2.5, 5 and 10 μM UC2288, 48 hours", "value": "No significant difference"}, {"measurement": "expression of p21 in HuMSCs", "setting": "[7]; 2.5 μM", "value": "reduced p21 expression"}, {"measurement": "expression of p21 in HuMSCs", "setting": "[7]; 5 μM", "value": "reduced p21 expression"}, {"measurement": "expression of p21 in HuMSCs", "setting": "[7]; 10 μM", "value": "increased expression"}]}
